How the values were obtained:
Format in all cases: in vivo
[1] = tested on: redroot pigweed (Amaranthus retroflexus, AMARE); experiment: Pre-emerge test, greenhouse herbicide activity screening; details: pre-emerge, phytotoxicity rating 0-100 at 14 days after application
In short: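 Rating: 0–100 visual injury, 14 DAA. Application: acetone, 187 l/ha, 15–1000 g ai/ha, flat-fan track sprayer with nozzle 40–45 cm above soil or canopy. Post-emerge runs used 0.25% v/v surfactant on 2–3 leaf plants.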

[2] = tested on: upland rice (Oryza sp., var. Tebonnet, RICE); experiment: Pre-emerge test, crop safety; details: crop damage, pre-emerge, phytotoxicity rating 0-100 at 14 days after application
In short: (§1)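 Plants grown in 10 cm pots of sandy loam mix received acetone-dissolved compounds through a moving flat-fan nozzle. Doses ranged from 15 to 1000 g ai/ha. Pre-emerge pots were seeded one day earlier, post-emerge pots 8–21 days earlier. Fourteen days on, each pot was graded 0–100 for damage.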

[3] = tested on: field corn (Zea mays L., var. Dekalb 535, CORN); experiment: Pre-emerge test, crop safety; details: crop damage, pre-emerge, phytotoxicity rating 0-100 at 14 days after application
In short: as §1

[4] = tested on: velvetleaf (Abutilon theophrasti, ABUTH); experiment: Post-emerge test, greenhouse herbicide activity screening; details: post-emerge, phytotoxicity rating 0-100 at 14 days after application
In short: (§2)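 Compounds in acetone were track-sprayed at 187 l/ha, 15–1000 g ai/ha, onto sandy loam pots. Pre-emerge seeds were sown one day before spraying, with surface watering afterwards. Post-emerge plants were at the 2–3 leaf stage and sprayed with 0.25% v/v non-ionic surfactant. Injury was rated 0–100 at 14 days.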

[5] = tested on: sicklepod (Cassia obtusifolia, CASOB); experiment: as above; details: post-emerge, phytotoxicity rating 0-100 at 14 days after application
In short: as §2

[6] = tested on: redroot pigweed (Amaranthus retroflexus, AMARE); experiment: as above; details: post-emerge, phytotoxicity rating 0-100 at 14 days after application
In short: as §2

[7] = tested on: lambsquarters (Chenopodium album, CHEAL); experiment: as above; details: post-emerge, phytotoxicity rating 0-100 at 14 days after application
In short: as §2

[8] = tested on: barnyardgrass (Echinochloa crus-galli, ECHCG); experiment: as above; details: post-emerge, phytotoxicity rating 0-100 at 14 days after application
In short: as §2

[9] = tested on: johnsongrass (Sorghum halepense, SORHA); experiment: as above; details: post-emerge, phytotoxicity rating 0-100 at 14 days after application
In short: as §2

[10] = tested on: large crabgrass (Digitaria sanguinalis, DIGSA); experiment: as above; details: post-emerge, phytotoxicity rating 0-100 at 14 days after application
In short: as §2

[11] = tested on: green foxtail (Setaria viridis, SETVI); experiment: as above; details: post-emerge, phytotoxicity rating 0-100 at 14 days after application
In short: as §2

[12] = tested on: ivyleaf morningglory (Ipomoea hederacea, IPOHE); experiment: as above; details: post-emerge, phytotoxicity rating 0-100 at 14 days after application
In short: as §2

[13] = tested on: upland rice (Oryza sp., var. Tebonnet, RICE); experiment: Post-emerge test, crop safety; details: post-emerge, crop damage rating 0-100 at 14 days after application
In short: (§3)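 Each test used a mechanized track sprayer delivering 187 l/ha of acetone solution at 15–1000 g ai/ha. Post-emerge foliage at 2–3 leaves was treated with added 0.25% v/v non-ionic surfactant and bottom-watered only. Injury was assessed on day 14, where 100 means total kill.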

[14] = tested on: field corn (Zea mays L., var. Dekalb 535, CORN); experiment: Post-emerge test, crop safety; details: post-emerge, crop damage rating 0-100 at 14 days after application
In short: as §3

[15] = tested on: velvetleaf (Abutilon theophrasti, ABUTH); experiment: Pre-emerge test, greenhouse herbicide activity screening; details: pre-emerge, phytotoxicity rating 0-100 at 14 days after application
In short: as §1

[16] = tested on: sicklepod (Cassia obtusifolia, CASOB); experiment: as above; details: pre-emerge, phytotoxicity rating 0-100 at 14 days after application
In short: as §1

[17] = tested on: lambsquarters (Chenopodium album, CHEAL); experiment: as above; details: pre-emerge, phytotoxicity rating 0-100 at 14 days after application
In short: as §1

[18] = tested on: barnyardgrass (Echinochloa crus-galli, ECHCG); experiment: as above; details: pre-emerge, phytotoxicity rating 0-100 at 14 days after application
In short: as §1

[19] = tested on: johnsongrass (Sorghum halepense, SORHA); experiment: as above; details: pre-emerge, phytotoxicity rating 0-100 at 14 days after application
In short: as §1

[20] = tested on: large crabgrass (Digitaria sanguinalis, DIGSA); experiment: as above; details: pre-emerge, phytotoxicity rating 0-100 at 14 days after application
In short: as §1

[21] = tested on: green foxtail (Setaria viridis, SETVI); experiment: as above; details: pre-emerge, phytotoxicity rating 0-100 at 14 days after application
In short: as §1

[22] = tested on: ivyleaf morningglory (Ipomoea hederacea, IPOHE); experiment: as above; details: pre-emerge, phytotoxicity rating 0-100 at 14 days after application
In short: as §1

For C=Cc1ccc(C(=O)Nc2c(OC)c(Cl)cc(F)c2N2C(=O)C3=C(CCCC3)C2=O)cc1 [8-30], the “Pre-emerge Herbicidal Activity AMARE” value ([1]; rate 63 g ai/ha) was 100, the “Pre-emerge Herbicidal Activity AMARE” value ([1]; rate 250 g ai/ha) was 100 and the “Pre-emerge Herbicidal Activity RICE” value ([2]; rate 63 g ai/ha) was 5. The “Pre-emerge Herbicidal Activity RICE” value ([2]; rate 250 g ai/ha) was 10, the “Pre-emerge Herbicidal Activity CORN” value ([3]; rate 63 g ai/ha) was 0 and the “Pre-emerge Herbicidal Activity CORN” value ([3]; rate 250 g ai/ha) was 5. The “Post-emerge Herbicidal Activity ABUTH” value ([4]; 63 g ai/ha) was 100, the “Post-emerge Herbicidal Activity ABUTH” value ([4]; 250 g ai/ha) was 100 and the “Post-emerge Herbicidal Activity CASOB” value ([5]; 63 g ai/ha) was 80. For the same compound, the “Post-emerge Herbicidal Activity CASOB” value ([5]; 250 g ai/ha) was 100, the “Post-emerge Herbicidal Activity AMARE” value ([6]; 63 g ai/ha) was 100 and the “Post-emerge Herbicidal Activity AMARE” value ([6]; 250 g ai/ha) was 100. The “Post-emerge Herbicidal Activity CHEAL” value ([7]; 63 g ai/ha) was 100, the “Post-emerge Herbicidal Activity CHEAL” value ([7]; 250 g ai/ha) was 100 and the “Post-emerge Herbicidal Activity ECHCG” value ([8]; 63 g ai/ha) was 30. The “Post-emerge Herbicidal Activity ECHCG” value ([8]; 250 g ai/ha) was 70, the “Post-emerge Herbicidal Activity SORHA” value ([9]; 63 g ai/ha) was 30 and the “Post-emerge Herbicidal Activity SORHA” value ([9]; 250 g ai/ha) was 50. The “Post-emerge Herbicidal Activity DIGSA” value ([10]; 63 g ai/ha) was 20, the “Post-emerge Herbicidal Activity DIGSA” value ([10]; 250 g ai/ha) was 40 and the “Post-emerge Herbicidal Activity SETVI” value ([11]; 63 g ai/ha) was 40. For the same compound, the “Post-emerge Herbicidal Activity SETVI” value ([11]; 250 g ai/ha) was 70, the “Post-emerge Herbicidal Activity IPOHE” value ([12]; 63 g ai/ha) was 100 and the “Post-emerge Herbicidal Activity IPOHE” value ([12]; 250 g ai/ha) was 100. For the same compound, the “Post-emerge Herbicidal Activity RICE” value ([13]; 63 g ai/ha) was 40, the “Post-emerge Herbicidal Activity RICE” value ([13]; 250 g ai/ha) was 35 and the “Post-emerge Herbicidal Activity CORN” value ([14]; 63 g ai/ha) was 10. For the same compound, the “Post-emerge Herbicidal Activity CORN” value ([14]; 250 g ai/ha) was 15, the “Pre-emerge Herbicidal Activity ABUTH” value ([15]; rate 63 g ai/ha) was 70 and the “Pre-emerge Herbicidal Activity ABUTH” value ([15]; rate 250 g ai/ha) was 90. The “Pre-emerge Herbicidal Activity CASOB” value ([16]; rate 63 g ai/ha) was 20, the “Pre-emerge Herbicidal Activity CASOB” value ([16]; rate 250 g ai/ha) was 20 and the “Pre-emerge Herbicidal Activity CHEAL” value ([17]; rate 63 g ai/ha) was 100. For the same compound, the “Pre-emerge Herbicidal Activity CHEAL” value ([17]; rate 250 g ai/ha) was 100, the “Pre-emerge Herbicidal Activity ECHCG” value ([18]; rate 63 g ai/ha) was 0 and the “Pre-emerge Herbicidal Activity ECHCG” value ([18]; rate 250 g ai/ha) was 20. For the same compound, the “Pre-emerge Herbicidal Activity SORHA” value ([19]; rate 63 g ai/ha) was 0, the “Pre-emerge Herbicidal Activity SORHA” value ([19]; rate 250 g ai/ha) was 30 and the “Pre-emerge Herbicidal Activity DIGSA” value ([20]; rate 63 g ai/ha) was 30. The “Pre-emerge Herbicidal Activity DIGSA” value ([20]; rate 250 g ai/ha) was 50, the “Pre-emerge Herbicidal Activity SETVI” value ([21]; rate 63 g ai/ha) was 20 and the “Pre-emerge Herbicidal Activity SETVI” value ([21]; rate 250 g ai/ha) was 70. For the same compound, the “Pre-emerge Herbicidal Activity IPOHE” value ([22]; rate 63 g ai/ha) was 20 and the “Pre-emerge Herbicidal Activity IPOHE” value ([22]; rate 250 g ai/ha) was 10.

COc1cccc(OC)c1OC(=O)Nc1c(C)c(Cl)cc(F)c1-n1c(=O)cc(C(F)(F)F)n(C)c1=O [4-59] was tested, and the “Pre-emerge Herbicidal Activity AMARE” value ([1]; rate 63 g ai/ha) was 100, the “Pre-emerge Herbicidal Activity AMARE” value ([1]; rate 250 g ai/ha) was 100 and the “Pre-emerge Herbicidal Activity RICE” value ([2]; rate 63 g ai/ha) was 0. The “Pre-emerge Herbicidal Activity RICE” value ([2]; rate 250 g ai/ha) was 70, the “Pre-emerge Herbicidal Activity CORN” value ([3]; rate 63 g ai/ha) was 5 and the “Pre-emerge Herbicidal Activity CORN” value ([3]; rate 250 g ai/ha) was 80. For the same compound, the “Post-emerge Herbicidal Activity ABUTH” value ([4]; 63 g ai/ha) was 100, the “Post-emerge Herbicidal Activity ABUTH” value ([4]; 250 g ai/ha) was 100 and the “Post-emerge Herbicidal Activity CASOB” value ([5]; 63 g ai/ha) was 30. The “Post-emerge Herbicidal Activity CASOB” value ([5]; 250 g ai/ha) was 60, the “Post-emerge Herbicidal Activity AMARE” value ([6]; 63 g ai/ha) was 90 and the “Post-emerge Herbicidal Activity AMARE” value ([6]; 250 g ai/ha) was 100. For the same compound, the “Post-emerge Herbicidal Activity CHEAL” value ([7]; 63 g ai/ha) was 100, the “Post-emerge Herbicidal Activity CHEAL” value ([7]; 250 g ai/ha) was 100 and the “Post-emerge Herbicidal Activity ECHCG” value ([8]; 63 g ai/ha) was 0. The “Post-emerge Herbicidal Activity ECHCG” value ([8]; 250 g ai/ha) was 20, the “Post-emerge Herbicidal Activity SORHA” value ([9]; 63 g ai/ha) was 0 and the “Post-emerge Herbicidal Activity SORHA” value ([9]; 250 g ai/ha) was 30. For the same compound, the “Post-emerge Herbicidal Activity DIGSA” value ([10]; 63 g ai/ha) was 0, the “Post-emerge Herbicidal Activity DIGSA” value ([10]; 250 g ai/ha) was 20 and the “Post-emerge Herbicidal Activity SETVI” value ([11]; 63 g ai/ha) was 0. For the same compound, the “Post-emerge Herbicidal Activity SETVI” value ([11]; 250 g ai/ha) was 30, the “Post-emerge Herbicidal Activity IPOHE” value ([12]; 63 g ai/ha) was 100 and the “Post-emerge Herbicidal Activity IPOHE” value ([12]; 250 g ai/ha) was 100. The “Post-emerge Herbicidal Activity RICE” value ([13]; 63 g ai/ha) was 50, the “Post-emerge Herbicidal Activity RICE” value ([13]; 250 g ai/ha) was 60 and the “Post-emerge Herbicidal Activity CORN” value ([14]; 63 g ai/ha) was 5. For the same compound, the “Post-emerge Herbicidal Activity CORN” value ([14]; 250 g ai/ha) was 25, the “Pre-emerge Herbicidal Activity ABUTH” value ([15]; rate 63 g ai/ha) was 100 and the “Pre-emerge Herbicidal Activity ABUTH” value ([15]; rate 250 g ai/ha) was 100. The “Pre-emerge Herbicidal Activity CASOB” value ([16]; rate 63 g ai/ha) was 20, the “Pre-emerge Herbicidal Activity CASOB” value ([16]; rate 250 g ai/ha) was 90 and the “Pre-emerge Herbicidal Activity CHEAL” value ([17]; rate 63 g ai/ha) was 100. For the same compound, the “Pre-emerge Herbicidal Activity CHEAL” value ([17]; rate 250 g ai/ha) was 100, the “Pre-emerge Herbicidal Activity ECHCG” value ([18]; rate 63 g ai/ha) was 10 and the “Pre-emerge Herbicidal Activity ECHCG” value ([18]; rate 250 g ai/ha) was 90. The “Pre-emerge Herbicidal Activity SORHA” value ([19]; rate 63 g ai/ha) was 40, the “Pre-emerge Herbicidal Activity SORHA” value ([19]; rate 250 g ai/ha) was 95 and the “Pre-emerge Herbicidal Activity DIGSA” value ([20]; rate 63 g ai/ha) was 40. For the same compound, the “Pre-emerge Herbicidal Activity DIGSA” value ([20]; rate 250 g ai/ha) was 100, the “Pre-emerge Herbicidal Activity SETVI” value ([21]; rate 63 g ai/ha) was 30 and the “Pre-emerge Herbicidal Activity SETVI” value ([21]; rate 250 g ai/ha) was 90. For the same compound, the “Pre-emerge Herbicidal Activity IPOHE” value ([22]; rate 63 g ai/ha) was 95 and the “Pre-emerge Herbicidal Activity IPOHE” value ([22]; rate 250 g ai/ha) was 100.

— patent publication US6355799B1, “Substituted benzene compounds, process for their preparation, and herbicidal and defoliant compositions containing them” (ISK Americas Incorporated, priority 1997, dated 2002)
